Experimental data taken from patent US20100137449A1, “SUBSTITUTED 1,3-CYCLOPENTADIONE MULTI-TARGET PROTEIN KINASE MODULATORS OF CANCER, ANGIOGENESIS AND THE INFLAMMATORY PATHWAYS ASSOCIATED THEREWITH” (METAPROTEOMICS, LLC, priority 2007, published 2010).

Legend:
Assay in all cases: KinaseProfiler Assay
[1] = target: EphA2(h) (Homo sapiens, UniProt P29317)
[2] = target: TrkB(h) (Homo sapiens, UniProt Q16620)
[3] = target: Rsk4(h) (Homo sapiens, UniProt Q9UK32)
[4] = target: PAK2(h) (Homo sapiens, UniProt Q13177)
Chain of PAK2(h) (Q13177 whole entry): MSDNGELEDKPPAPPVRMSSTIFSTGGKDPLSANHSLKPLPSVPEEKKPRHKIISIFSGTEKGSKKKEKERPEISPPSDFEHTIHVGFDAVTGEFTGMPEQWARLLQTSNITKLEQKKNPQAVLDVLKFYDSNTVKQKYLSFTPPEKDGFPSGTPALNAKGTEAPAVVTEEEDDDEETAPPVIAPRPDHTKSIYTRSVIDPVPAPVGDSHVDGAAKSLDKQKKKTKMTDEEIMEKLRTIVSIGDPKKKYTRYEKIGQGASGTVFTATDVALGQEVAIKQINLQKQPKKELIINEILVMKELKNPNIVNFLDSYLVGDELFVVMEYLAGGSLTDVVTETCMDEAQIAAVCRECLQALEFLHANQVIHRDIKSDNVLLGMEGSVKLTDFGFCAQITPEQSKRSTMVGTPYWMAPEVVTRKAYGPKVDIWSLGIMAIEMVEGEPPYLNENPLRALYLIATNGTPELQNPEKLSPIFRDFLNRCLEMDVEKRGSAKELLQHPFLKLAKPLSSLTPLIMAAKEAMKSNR

[5] = target: Tie2(h) (Homo sapiens, UniProt Q02763)
Chain of Tie2(h) (Q02763 23-1124): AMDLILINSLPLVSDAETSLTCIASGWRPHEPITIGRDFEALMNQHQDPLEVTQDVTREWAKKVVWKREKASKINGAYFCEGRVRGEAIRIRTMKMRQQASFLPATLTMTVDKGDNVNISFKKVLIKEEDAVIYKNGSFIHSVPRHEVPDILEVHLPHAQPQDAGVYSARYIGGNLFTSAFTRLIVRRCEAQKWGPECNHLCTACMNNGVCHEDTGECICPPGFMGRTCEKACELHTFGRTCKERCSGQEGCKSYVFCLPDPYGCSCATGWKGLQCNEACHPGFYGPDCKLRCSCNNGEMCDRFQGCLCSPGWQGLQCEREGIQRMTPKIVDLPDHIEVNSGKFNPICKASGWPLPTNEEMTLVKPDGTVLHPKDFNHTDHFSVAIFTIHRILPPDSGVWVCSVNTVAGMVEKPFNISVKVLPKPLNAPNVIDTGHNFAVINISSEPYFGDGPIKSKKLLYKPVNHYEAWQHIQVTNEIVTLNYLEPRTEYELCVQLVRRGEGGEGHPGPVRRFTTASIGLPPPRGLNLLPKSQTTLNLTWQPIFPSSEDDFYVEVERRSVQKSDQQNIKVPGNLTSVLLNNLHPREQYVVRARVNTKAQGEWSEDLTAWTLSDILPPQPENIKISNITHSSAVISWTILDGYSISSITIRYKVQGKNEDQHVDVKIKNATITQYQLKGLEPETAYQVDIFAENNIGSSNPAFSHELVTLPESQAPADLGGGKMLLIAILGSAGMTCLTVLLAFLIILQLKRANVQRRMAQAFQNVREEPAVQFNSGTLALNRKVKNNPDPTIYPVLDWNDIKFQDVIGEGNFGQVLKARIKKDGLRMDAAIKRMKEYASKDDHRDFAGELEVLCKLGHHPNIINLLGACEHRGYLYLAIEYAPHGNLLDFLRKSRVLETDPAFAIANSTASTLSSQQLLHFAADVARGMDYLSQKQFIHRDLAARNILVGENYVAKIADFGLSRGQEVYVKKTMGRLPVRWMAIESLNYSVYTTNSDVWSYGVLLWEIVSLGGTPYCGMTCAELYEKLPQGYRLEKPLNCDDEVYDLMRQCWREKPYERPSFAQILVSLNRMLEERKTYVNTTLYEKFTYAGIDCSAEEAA

[6] = target: Abl(h) (Homo sapiens, UniProt P00519)
[7] = target: T1, EphB1(h) (Homo sapiens, UniProt P54762)
T1 sequence (P54762 18-984): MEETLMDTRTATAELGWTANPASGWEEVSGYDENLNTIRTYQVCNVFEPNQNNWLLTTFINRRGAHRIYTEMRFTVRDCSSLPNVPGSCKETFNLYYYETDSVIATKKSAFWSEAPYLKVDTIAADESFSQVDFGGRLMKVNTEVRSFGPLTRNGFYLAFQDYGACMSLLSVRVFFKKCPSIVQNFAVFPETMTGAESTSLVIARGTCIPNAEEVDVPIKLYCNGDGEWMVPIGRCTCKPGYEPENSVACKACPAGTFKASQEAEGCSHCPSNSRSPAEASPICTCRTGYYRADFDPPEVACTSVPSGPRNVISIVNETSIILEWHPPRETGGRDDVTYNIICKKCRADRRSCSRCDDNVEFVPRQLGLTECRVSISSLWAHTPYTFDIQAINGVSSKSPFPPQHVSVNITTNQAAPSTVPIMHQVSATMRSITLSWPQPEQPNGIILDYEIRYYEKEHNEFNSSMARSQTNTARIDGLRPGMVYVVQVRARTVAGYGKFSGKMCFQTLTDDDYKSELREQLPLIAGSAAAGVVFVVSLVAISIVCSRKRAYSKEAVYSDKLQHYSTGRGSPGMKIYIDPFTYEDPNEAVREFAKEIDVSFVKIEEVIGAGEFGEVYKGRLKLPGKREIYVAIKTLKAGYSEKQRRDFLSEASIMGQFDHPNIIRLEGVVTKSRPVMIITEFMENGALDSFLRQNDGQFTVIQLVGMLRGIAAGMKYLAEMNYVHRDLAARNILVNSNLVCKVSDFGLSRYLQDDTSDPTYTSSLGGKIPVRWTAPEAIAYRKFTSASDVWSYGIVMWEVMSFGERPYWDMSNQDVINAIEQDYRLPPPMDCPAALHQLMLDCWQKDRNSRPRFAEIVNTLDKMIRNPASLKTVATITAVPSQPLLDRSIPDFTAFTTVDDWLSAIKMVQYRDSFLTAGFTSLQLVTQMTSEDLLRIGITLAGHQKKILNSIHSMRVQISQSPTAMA

[8] = target: T2, TSSK2(h) (Homo sapiens, UniProt Q96PF2)
T2 sequence (Q96PF2 1-358): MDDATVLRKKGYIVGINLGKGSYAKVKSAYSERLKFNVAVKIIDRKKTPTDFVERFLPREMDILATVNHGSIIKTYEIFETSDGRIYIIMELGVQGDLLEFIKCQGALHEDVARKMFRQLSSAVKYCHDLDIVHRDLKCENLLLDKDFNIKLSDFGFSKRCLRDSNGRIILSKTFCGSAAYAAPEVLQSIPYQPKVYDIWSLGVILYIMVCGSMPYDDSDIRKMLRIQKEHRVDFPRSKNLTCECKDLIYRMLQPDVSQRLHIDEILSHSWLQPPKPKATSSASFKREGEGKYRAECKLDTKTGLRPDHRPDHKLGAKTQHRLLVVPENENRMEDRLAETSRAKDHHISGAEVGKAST

[9] = target: CK1γ2(h) (Homo sapiens, UniProt P78368)
[10] = target: PAK6(h) (Homo sapiens, UniProt Q9NQU5)
Chain of PAK6(h) (Q9NQU5 whole entry): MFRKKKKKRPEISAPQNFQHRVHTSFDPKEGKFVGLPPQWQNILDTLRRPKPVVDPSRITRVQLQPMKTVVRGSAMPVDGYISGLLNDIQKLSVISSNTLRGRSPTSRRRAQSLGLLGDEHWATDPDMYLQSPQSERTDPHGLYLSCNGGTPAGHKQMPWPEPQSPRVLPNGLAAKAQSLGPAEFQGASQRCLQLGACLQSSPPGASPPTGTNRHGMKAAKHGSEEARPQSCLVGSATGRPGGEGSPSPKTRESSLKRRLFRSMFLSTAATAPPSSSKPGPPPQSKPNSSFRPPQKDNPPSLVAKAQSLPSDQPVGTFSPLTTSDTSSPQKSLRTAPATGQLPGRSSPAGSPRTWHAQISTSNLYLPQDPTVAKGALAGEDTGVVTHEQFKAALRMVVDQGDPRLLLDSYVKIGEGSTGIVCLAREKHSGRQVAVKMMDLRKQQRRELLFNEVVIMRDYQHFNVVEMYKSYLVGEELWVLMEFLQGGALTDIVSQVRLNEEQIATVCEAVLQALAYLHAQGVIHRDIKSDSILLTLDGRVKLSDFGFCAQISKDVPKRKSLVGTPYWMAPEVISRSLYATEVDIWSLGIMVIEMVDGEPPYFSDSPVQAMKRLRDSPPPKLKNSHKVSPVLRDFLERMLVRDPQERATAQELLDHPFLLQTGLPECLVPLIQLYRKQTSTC

Chain of EphA2(h) (P29317 24-976): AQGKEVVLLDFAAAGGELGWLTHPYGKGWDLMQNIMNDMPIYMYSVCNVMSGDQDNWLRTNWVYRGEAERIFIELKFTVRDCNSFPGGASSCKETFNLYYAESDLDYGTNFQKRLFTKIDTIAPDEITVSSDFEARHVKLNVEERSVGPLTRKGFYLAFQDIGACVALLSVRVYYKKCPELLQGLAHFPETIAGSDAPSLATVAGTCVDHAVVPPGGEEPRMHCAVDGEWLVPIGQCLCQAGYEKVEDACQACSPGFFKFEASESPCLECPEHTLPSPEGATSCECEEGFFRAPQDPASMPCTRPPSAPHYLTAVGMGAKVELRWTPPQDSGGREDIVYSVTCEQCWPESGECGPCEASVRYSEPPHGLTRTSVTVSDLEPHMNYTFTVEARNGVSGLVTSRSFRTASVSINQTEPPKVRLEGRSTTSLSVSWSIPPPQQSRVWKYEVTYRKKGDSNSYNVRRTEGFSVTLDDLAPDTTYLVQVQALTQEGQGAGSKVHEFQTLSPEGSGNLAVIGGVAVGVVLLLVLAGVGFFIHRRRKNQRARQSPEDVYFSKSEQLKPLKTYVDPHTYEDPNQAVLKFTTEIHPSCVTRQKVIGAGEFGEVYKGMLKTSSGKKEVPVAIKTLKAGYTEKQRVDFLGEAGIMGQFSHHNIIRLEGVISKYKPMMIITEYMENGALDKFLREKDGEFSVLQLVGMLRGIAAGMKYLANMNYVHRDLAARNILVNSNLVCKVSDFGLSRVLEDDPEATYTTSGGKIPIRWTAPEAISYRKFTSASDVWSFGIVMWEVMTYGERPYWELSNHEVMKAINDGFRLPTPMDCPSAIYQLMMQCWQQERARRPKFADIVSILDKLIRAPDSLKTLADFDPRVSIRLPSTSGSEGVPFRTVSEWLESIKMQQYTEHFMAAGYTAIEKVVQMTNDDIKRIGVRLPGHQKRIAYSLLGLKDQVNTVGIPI
Chain of TrkB(h) (Q16620 32-822): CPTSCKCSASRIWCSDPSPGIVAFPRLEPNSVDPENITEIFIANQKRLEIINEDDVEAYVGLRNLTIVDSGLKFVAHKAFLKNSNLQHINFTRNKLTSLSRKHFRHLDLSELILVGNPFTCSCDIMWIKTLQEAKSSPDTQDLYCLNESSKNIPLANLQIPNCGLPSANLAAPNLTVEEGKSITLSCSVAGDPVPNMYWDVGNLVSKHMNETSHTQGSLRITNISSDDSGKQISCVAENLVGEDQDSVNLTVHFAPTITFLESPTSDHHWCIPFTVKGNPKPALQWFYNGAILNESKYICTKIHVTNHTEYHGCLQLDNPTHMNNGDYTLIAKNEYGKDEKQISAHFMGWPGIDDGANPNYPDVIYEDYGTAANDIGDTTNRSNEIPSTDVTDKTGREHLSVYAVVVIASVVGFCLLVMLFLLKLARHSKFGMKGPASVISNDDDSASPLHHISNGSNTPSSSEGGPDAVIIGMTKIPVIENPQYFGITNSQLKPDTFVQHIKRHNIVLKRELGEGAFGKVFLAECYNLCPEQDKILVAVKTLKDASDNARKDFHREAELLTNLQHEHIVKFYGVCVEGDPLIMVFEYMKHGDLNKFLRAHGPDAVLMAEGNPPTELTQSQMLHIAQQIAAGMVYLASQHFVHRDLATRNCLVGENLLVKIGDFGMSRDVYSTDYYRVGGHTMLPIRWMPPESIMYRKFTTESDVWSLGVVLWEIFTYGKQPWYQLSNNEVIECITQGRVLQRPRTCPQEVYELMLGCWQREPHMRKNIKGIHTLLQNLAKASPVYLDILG
Chain of Rsk4(h) (Q9UK32 whole entry): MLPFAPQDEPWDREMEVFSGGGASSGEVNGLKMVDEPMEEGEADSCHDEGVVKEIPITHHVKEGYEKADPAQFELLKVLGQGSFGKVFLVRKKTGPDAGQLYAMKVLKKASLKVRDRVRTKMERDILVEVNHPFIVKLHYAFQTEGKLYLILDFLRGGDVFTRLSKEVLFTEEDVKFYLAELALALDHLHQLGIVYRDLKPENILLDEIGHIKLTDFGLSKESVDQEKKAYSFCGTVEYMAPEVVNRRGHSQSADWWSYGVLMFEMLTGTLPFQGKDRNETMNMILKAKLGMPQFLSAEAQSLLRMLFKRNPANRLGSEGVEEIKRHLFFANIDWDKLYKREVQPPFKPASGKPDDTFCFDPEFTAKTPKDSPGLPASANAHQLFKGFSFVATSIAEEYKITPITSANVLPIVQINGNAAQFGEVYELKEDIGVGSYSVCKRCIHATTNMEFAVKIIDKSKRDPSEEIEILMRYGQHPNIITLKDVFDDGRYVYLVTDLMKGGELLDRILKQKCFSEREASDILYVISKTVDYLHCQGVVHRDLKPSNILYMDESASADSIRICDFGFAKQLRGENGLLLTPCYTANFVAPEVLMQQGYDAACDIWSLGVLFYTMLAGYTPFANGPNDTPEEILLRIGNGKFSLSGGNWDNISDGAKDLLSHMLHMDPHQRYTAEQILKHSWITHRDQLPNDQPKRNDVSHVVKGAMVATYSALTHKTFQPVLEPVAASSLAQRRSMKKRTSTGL

CC(C)CCC(=O)[C@]1(O)C(O)=C(C(=O)C(C)C)C(=O)[C@H]1CCC(C)C [TH2, tetrahydroiso-cohumulone] was tested, and the kinase inhibition ([1]; 1 μg/ml) was 102% of control, the kinase inhibition ([1]; 5 μg/ml) was 104% of control and the kinase inhibition ([1]; 25 μg/ml) was 105% of control. The kinase inhibition ([1]; 50 μg/ml) was 99% of control, the kinase inhibition ([1]; 100 μg/ml) was 92% of control and the kinase inhibition ([2]; 1 μg/ml) was 136% of control. The kinase inhibition ([2]; 5 μg/ml) was 132% of control, the kinase inhibition ([2]; 25 μg/ml) was 144% of control and the kinase inhibition ([2]; 50 μg/ml) was 118% of control. For the same compound, the kinase inhibition ([2]; 100 μg/ml) was 78% of control, the kinase inhibition ([3]; 1 μg/ml) was 79% of control and the kinase inhibition ([3]; 5 μg/ml) was 71% of control. For the same compound, the kinase inhibition ([3]; 25 μg/ml) was 47% of control, the kinase inhibition ([3]; 50 μg/ml) was 31% of control and the kinase inhibition ([3]; 100 μg/ml) was 17% of control. For the same compound, the kinase inhibition ([4]; 1 μg/ml) was 116% of control, the kinase inhibition ([4]; 5 μg/ml) was 110% of control and the kinase inhibition ([4]; 25 μg/ml) was 107% of control. The kinase inhibition ([4]; 50 μg/ml) was 101% of control, the kinase inhibition ([4]; 100 μg/ml) was 96% of control and the kinase inhibition ([5]; 1 μg/ml) was 110% of control. The kinase inhibition ([5]; 5 μg/ml) was 96% of control, the kinase inhibition ([5]; 25 μg/ml) was 74% of control and the kinase inhibition ([5]; 50 μg/ml) was 80% of control. The kinase inhibition ([5]; 100 μg/ml) was 78% of control, the kinase inhibition ([6]; 1 μg/ml) was 92% of control and the kinase inhibition ([6]; 5 μg/ml) was 87% of control. The kinase inhibition ([6]; 25 μg/ml) was 70% of control, the kinase inhibition ([6]; 50 μg/ml) was 64% of control and the kinase inhibition ([6]; 100 μg/ml) was 40% of control. For the same compound, the kinase inhibition ([7]; 1 μg/ml) was 127% of control, the kinase inhibition ([7]; 5 μg/ml) was 82% of control and the kinase inhibition ([7]; 25 μg/ml) was 144% of control. For the same compound, the kinase inhibition ([7]; 50 μg/ml) was 195% of control, the kinase inhibition ([7]; 100 μg/ml) was 105% of control and the kinase inhibition ([8]; 1 μg/ml) was 106% of control. For the same compound, the kinase inhibition ([8]; 5 μg/ml) was 99% of control, the kinase inhibition ([8]; 25 μg/ml) was 100% of control and the kinase inhibition ([8]; 50 μg/ml) was 97% of control. The kinase inhibition ([8]; 100 μg/ml) was 87% of control, the kinase inhibition ([9]; 1 μg/ml) was 103% of control and the kinase inhibition ([9]; 5 μg/ml) was 96% of control. The kinase inhibition ([9]; 25 μg/ml) was 79% of control, the kinase inhibition ([9]; 50 μg/ml) was 54% of control and the kinase inhibition ([9]; 100 μg/ml) was 49% of control. The kinase inhibition ([10]; 1 μg/ml) was 85% of control, the kinase inhibition ([10]; 5 μg/ml) was 113% of control and the kinase inhibition ([10]; 25 μg/ml) was 90% of control. The kinase inhibition ([10]; 50 μg/ml) was 89% of control and the kinase inhibition ([10]; 100 μg/ml) was 42% of control.
